Data published in ChEMBL document CHEMBL1155104, “Gallic acid-based indanone derivatives as anticancer agents” (Bioorg Med Chem Lett, 2008).

How the values were obtained:
Caco-2 = test: Cytotoxicity against human CaCO2 cells after 24 hrs by MTT assay; type: functional, cell-based; conditions: Caco-2, 24 h
HepG2 = test: Cytotoxicity against human HEPG2 cells after 24 hrs by MTT assay; type: functional, cell-based; conditions: HepG2, 24 h
MCF7 = test: Cytotoxicity against human MCF7 cells after 24 hrs by MTT assay; type: functional, cell-based; conditions: MCF7, 24 h
WRL68 = test: Cytotoxicity against human WRL68 cells after 24 hrs by MTT assay; type: functional, cell-based; conditions: WRL68, 24 h
[1] = Cytotoxicity against human KB403 cells after 24 hrs by MTT assay; type: functional, cell-based; conditions: KB403, 24 h
[2] = Toxicity in human erythrocytes assessed as osmotic hemolysis; type: cell-based; conditions: erythrocyte
[3] = Toxicity in human erythrocytes assessed as osmotic hemolysis at 258 uM; type: cell-based; conditions: erythrocyte

COc1cccc(C2CC(=O)c3cc(OC)c(OC)c(OC)c32)c1 (centres undefined)
IC50 (Caco-2): ≥ 250 µM
IC50 (HepG2): ≥ 250 µM
IC50 (MCF7): ≥ 250 µM
IC50 (WRL68): ≥ 250 µM
IC50 [1]: ≥ 250 µM

COc1cc(OC)c(C2CC(=O)c3cc(OC)c(OC)c(OC)c32)c(OC)c1 (centres undefined)
IC50 (Caco-2): 226 µM
IC50 (HepG2): 1.49 µM
Activity [2]: Toxic
IC50 (MCF7): 211 µM
IC50 (WRL68): 0.022 µM
IC50 [1]: 12.9 µM

COc1cc2c(cc1OC)C(c1cc(OC)c(OC)c(OC)c1)CC2=O (centres undefined)
IC50 (Caco-2): 140 µM
IC50 (HepG2): 112 µM
IC50 (MCF7): ≥ 250 µM
IC50 (WRL68): 196 µM
IC50 [1]: 140 µM

COc1cc(C2=C(O)C(=O)c3cc(OC)c(OC)c(OC)c32)cc(OC)c1OC
IC50 (Caco-2): ≥ 250 µM
IC50 (HepG2): 74.6 µM
IC50 (MCF7): ≥ 250 µM
IC50 (WRL68): 124 µM
IC50 [1]: ≥ 250 µM

COc1cc(C2C/C(=N\O)c3cc(OC)c(OC)c(OC)c32)cc(OC)c1OC (centres undefined)
IC50 (Caco-2): 49.6 µM
IC50 (HepG2): 124 µM
IC50 (MCF7): ≥ 250 µM
IC50 (WRL68): 223 µM
IC50 [1]: 136 µM

COc1cc2c(c(OC)c1OC)C(c1ccccc1)CC2=O (centres undefined)
IC50 (Caco-2): ≥ 250 µM
IC50 (HepG2): 188 µM
Activity [2]: Toxic
IC50 (MCF7): ≥ 250 µM
IC50 (WRL68): ≥ 250 µM
IC50 [1]: 0.84 µM

COc1ccc(C2CC(=O)c3cc(OC)c(OC)c(OC)c32)c(OC)c1OC (centres undefined)
IC50 (Caco-2): 206 µM
IC50 (HepG2): ≥ 250 µM
Activity [2]: Toxic
IC50 (MCF7): ≥ 250 µM
IC50 (WRL68): 0.023 µM
IC50 [1]: 1.54 µM

COc1cc(C2CC(=O)c3cc(OC)c(OC)c(OC)c32)cc(OC)c1OC (centres undefined)
IC50 (Caco-2): ≥ 250 µM
Activity [3]: Non-toxic
IC50 (HepG2): 9 µM
IC50 (MCF7): 2.2 µM
IC50 (WRL68): 12.8 µM
IC50 [1]: 10.3 µM

COc1cc2c(c(OC)c1OC)-c1c(oc3c(OC)c(OC)c(OC)cc13)C2=O
IC50 (Caco-2): 112 µM
IC50 (HepG2): ≥ 250 µM
IC50 (MCF7): 50 µM
IC50 (WRL68): 62.5 µM
IC50 [1]: ≥ 250 µM

COc1cc(C2CC(O)c3cc(OC)c(OC)c(OC)c32)cc(OC)c1OC (centres undefined)
IC50 (Caco-2): 6.4 µM
IC50 (HepG2): 102 µM
IC50 (MCF7): 244 µM
IC50 (WRL68): 192 µM
IC50 [1]: 192 µM

COc1cc(C2CCc3cc(OC)c(OC)c(OC)c32)cc(OC)c1OC (centres undefined)
IC50 (Caco-2): 115 µM
IC50 (HepG2): 89.7 µM
IC50 (MCF7): ≥ 250 µM
IC50 (WRL68): 154 µM
IC50 [1]: ≥ 250 µM

CC(=O)O[C@H]1C(=O)[C@@]2(C)[C@H]([C@H](OC(=O)c3ccccc3)[C@]3(O)C[C@H](OC(=O)[C@H](O)[C@@H](NC(=O)c4ccccc4)c4ccccc4)C(C)=C1C3(C)C)[C@]1(OC(C)=O)CO[C@@H]1C[C@@H]2O [PACLITAXEL]
IC50 (Caco-2): 0.008 µM
IC50 (HepG2): 0.009 µM
IC50 (MCF7): 0.006 µM
IC50 (WRL68): 0.004 µM
IC50 [1]: 0.001 µM

COc1cc([C@@H]2c3cc4c(cc3[C@H](O)[C@H]3COC(=O)[C@H]23)OCO4)cc(OC)c1OC [PODOFILOX]
IC50 (Caco-2): 0.002 µM
IC50 (HepG2): 4.8 µM
IC50 (MCF7): 8.5 µM
IC50 (WRL68): 4.8 µM
IC50 [1]: 20.5 µM
